Results as given in patent US12052991B2, “Substituted pyridinyloxybenzenes and salts thereof and use thereof as herbicidal agents” (Bayer Aktiengesellschaft, priority 2018, dated 2024).

Columns and labels:
Type in all cases: in vivo
[1] = system: Amaranthus retroflexus (AMARE); assay: Herbicidal pre-emergence action, test C (Table C6); conditions: visual scoring after about 3 weeks, 100% = plants have died, 0% = like control plants
Outline: (§1)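 After sowing weed seeds into sandy loam and covering them, the soil surface was treated with aqueous WP or EC preparations containing 0.5% additive, 600 L/ha, at 1280 or 320 g/ha. Scoring was visual, in percent against untreated, at about 3 weeks.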

[2] = system: Alopecurus myosuroides (ALOMY); assay: Herbicidal pre-emergence action, test C (Table C9); conditions: visual scoring after about 3 weeks, 100% = plants have died, 0% = like control plants
Outline: as §1

[3] = system: Digitaria sanguinalis (DIGSA); assay: Herbicidal post-emergence action (Table B10); conditions: visual rating about 3 weeks after treatment, 100% = plants have died, 0% = like control plants
Outline: (§2)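 Application rates of 1280 or 320 g/ha were tested post-emergence on one-leaf-stage greenhouse plants in sandy loam, using WP or EC formulations with 0.5% additive at 600 L/ha. Activity was rated visually against untreated plants about 3 weeks later.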

Stellaria media (STEME) [4] = assay: Herbicidal post-emergence action (Table B8); conditions: visual rating about 3 weeks after treatment, 100% = plants have died, 0% = like control plants
Outline: as §2

Setaria viridis (SETVI) [5] = assay: Herbicidal pre-emergence action, test C (Table C4); conditions: visual scoring after about 3 weeks, 100% = plants have died, 0% = like control plants
Outline: as §1

[6] = system: Amaranthus retroflexus (AMARE); assay: Herbicidal post-emergence action (Table B6); conditions: visual rating about 3 weeks after treatment, 100% = plants have died, 0% = like control plants
Outline: as §2

Poa annua (POAAN) [7] = assay: Herbicidal post-emergence action (Table B3); conditions: rated visually after about 3 weeks, 100% = plants have died, 0% = like control plants
Outline: as §2

Bassia scoparia (KCHSC) [8] = assay: Herbicidal pre-emergence action, test C (Table C11); conditions: visual scoring vs untreated controls
From the text: (§3) Seeds of mono- and dicotyledonous weed plants were placed in plastic pots in sandy loam soil (doubly sown with one species each of mono- or dicotyledonous weed plants per pot) and covered with soil. The compounds of the invention, formulated in the form of wettable powders (WP) or as emulsion concentrates (EC), were then applied onto the surface of the covering soil as aqueous suspension or emulsion with addition of 0.5% additive at a water application rate of 600 liters per hectare (converted). After the treatment, the pots were placed in a greenhouse and kept under good growth conditions for the test plants. After about 3 weeks, the effect of the preparations was scored visually in comparison with untreated controls as percentages. For example, 100% activity=the plants have died, 0% activity=like control plants. Tables C1 to C12 below show the effects of selected compounds of the general formula (I) according to Table 1 on various harmful plants and an application rate corresponding to 1280 or 320 g/ha, which were obtained by the experimental procedure mentioned above.

Veronica persica (VERPE) [9] = assay: Herbicidal post-emergence action (Table B12); conditions: visual rating about 3 weeks after treatment, 100% = plants have died, 0% = like control plants
Outline: as §2

[10] = system: Alopecurus myosuroides (ALOMY); assay: Herbicidal post-emergence action (Table B9); conditions: rated visually after about 3 weeks, 100% = plants have died, 0% = like control plants
Outline: as §2

[11] = system: Matricaria inodora (MATIN); assay: Herbicidal pre-emergence action, test C (Table C7); conditions: dosage 1280 g/ha; visual scoring after about 3 weeks; 100% = plants have died, 0% = like control plants
Outline: as §1

[12] = system: Abutilon theophrasti (ABUTH); assay: Herbicidal post-emergence action (Table B5); conditions: rated visually after about 3 weeks, 100% = plants have died, 0% = like control plants
Outline: as §2

[13] = system: harmful plants ABUTH, AMARE, ECHCG, LOLRI, MATIN, POAAN, SETVI, STEME, ALOMY, DIGSA, KCHSC and VERPE; assay: Herbicidal pre-emergence action (test C), summary of Tables C1-C12; conditions: application rate of 1280 or 320 g of active ingredient per hectare; summary in words
Outline: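 Visual % damage versus untreated plants (0% = like control, 100% = died) was scored after about 3 weeks in the greenhouse. Before emergence, seeds sown in sandy loam got a soil-surface spray of compound as WP or EC plus 0.5% additive, using 600 L/ha water at rates of 1280 or 320 g/ha.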

Stellaria media (STEME) [14] = assay: Herbicidal pre-emergence action, test C (Table C8); conditions: visual scoring after about 3 weeks, 100% = plants have died, 0% = like control plants
Outline: as §1

[15] = system: Echinochloa crus-galli (ECHCG); assay: Herbicidal pre-emergence action, test C (Table C1); conditions: visual scoring after about 3 weeks, 100% = plants have died, 0% = like control plants
From the text: as §3

[16] = system: Digitaria sanguinalis (DIGSA); assay: Herbicidal pre-emergence action, test C (Table C10); conditions: visual scoring after about 3 weeks, 100% = plants have died, 0% = like control plants
Outline: as §1

[17] = system: harmful plants ABUTH, AMARE, ECHCG, LOLRI, MATIN, POAAN, SETVI, STEME, ALOMY, DIGSA, KCHSC and VERPE; assay: Herbicidal post-emergence action, summary of Tables B1-B12; conditions: application rate of 1280 or 320 g of active ingredient per hectare; summary in words
Outline: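 Activity scored by eye roughly 3 weeks post-treatment against untreated plants, from 0% (no effect) to 100% (plants dead). Application rates were 1280 or 320 g/ha, as aqueous WP/EC spray plus 0.5% additive at 600 L/ha, onto one-leaf-stage weeds grown 2–3 weeks in sandy loam.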

[18] = system: Abutilon theophrasti (ABUTH); assay: Herbicidal pre-emergence action, test C (Table C5); conditions: visual scoring after about 3 weeks, 100% = plants have died, 0% = like control plants
Outline: as §1

[19] = system: Echinochloa crus-galli (ECHCG); assay: Herbicidal post-emergence action (Table B1); conditions: rated visually after about 3 weeks, 100% = plants have died, 0% = like control plants
Outline: as §2

Bassia scoparia (KCHSC) [20] = assay: Herbicidal post-emergence action (Table B11); conditions: visual rating about 3 weeks after treatment, 100% = plants have died, 0% = like control plants
Outline: as §2

Veronica persica (VERPE) [21] = assay: Herbicidal pre-emergence action, test C (Table C12); conditions: visual scoring vs untreated controls
Outline: as §1

Poa annua (POAAN) [22] = assay: Herbicidal pre-emergence action, test C (Table C3); conditions: visual scoring after about 3 weeks, 100% = plants have died, 0% = like control plants
Outline: as §1

Setaria viridis (SETVI) [23] = assay: Herbicidal post-emergence action (Table B4); conditions: rated visually after about 3 weeks, 100% = plants have died, 0% = like control plants
Method: Seeds of mono- and dicotyledonous weed plants were placed in plastic pots in sandy loam soil (doubly sown with in each case one species of mono- or dicotyledonous weed plants per pot), covered with soil and cultivated in a greenhouse under controlled growth conditions. 2 to 3 weeks after sowing, the test plants were treated at the one-leaf stage. The compounds of the invention, formulated in the form of wettable powders (WP) or as emulsion concentrates (EC), were applied onto the green parts of the plants as aqueous suspension or emulsion with addition of 0.5% additive at a water application rate of 600 liters per hectare (converted). After the test plants had been kept in the greenhouse under optimum growth conditions for about 3 weeks, the activity of the preparations was rated visually in comparison to untreated controls. For example, 100% activity=the plants have died, 0% activity=like control plants. Tables B1 to B12 below show the effects of selected compounds of the general formula (I) according to Table 1 on various harmful plants and an application rate corresponding to 1280 or 320 g/ha, which were obtained by the experimental procedure mentioned above.

Lolium rigidum (LOLRI) = assay: Herbicidal pre-emergence action, test C (Table C2); conditions: dosage 1280 g/ha; visual scoring after about 3 weeks; 100% = plants have died, 0% = like control plants
From the text: as §3

SMILES	Pre-emergence action against Amaranthus retroflexus (AMARE) ([1]; dosage 320 g/ha) [%]	Pre-emergence action against Amaranthus retroflexus (AMARE) ([1]; dosage 1280 g/ha) [%]	Pre-emergence action against Alopecurus myosuroides (ALOMY) ([2]; dosage 320 g/ha) [%]	Pre-emergence action against Alopecurus myosuroides (ALOMY) ([2]; dosage 1280 g/ha) [%]	Post-emergence action against Digitaria sanguinalis (DIGSA) ([3]; dosage 1280 g/ha) [%]	Post-emergence action against Stellaria media (STEME) (Stellaria media (STEME) [4]; dosage 320 g/ha) [%]	Post-emergence action against Stellaria media (STEME) (Stellaria media (STEME) [4]; dosage 1280 g/ha) [%]	Pre-emergence action against Setaria viridis (SETVI) (Setaria viridis (SETVI) [5]; dosage 1280 g/ha) [%]	Post-emergence action against Amaranthus retroflexus (AMARE) ([6]; dosage 320 g/ha) [%]	Post-emergence action against Amaranthus retroflexus (AMARE) ([6]; dosage 1280 g/ha) [%]	Post-emergence action against Poa annua (POAAN) (Poa annua (POAAN) [7]; 320 g/ha) [%]	Post-emergence action against Poa annua (POAAN) (Poa annua (POAAN) [7]; 1280 g/ha) [%]	Pre-emergence action against Bassia scoparia (KCHSC) (Bassia scoparia (KCHSC) [8]; dosage 320 g/ha) [%]	Pre-emergence action against Bassia scoparia (KCHSC) (Bassia scoparia (KCHSC) [8]; dosage 1280 g/ha) [%]	Post-emergence action against Veronica persica (VERPE) (Veronica persica (VERPE) [9]; dosage 320 g/ha) [%]	Post-emergence action against Veronica persica (VERPE) (Veronica persica (VERPE) [9]; dosage 1280 g/ha) [%]	Post-emergence action against Alopecurus myosuroides (ALOMY) ([10]; 320 g/ha) [%]	Post-emergence action against Alopecurus myosuroides (ALOMY) ([10]; 1280 g/ha) [%]	Post-emergence action against Abutilon theophrasti (ABUTH) ([12]; 320 g/ha) [%]	Post-emergence action against Abutilon theophrasti (ABUTH) ([12]; 1280 g/ha) [%]	also measured
FC(F)c1cc(-c2ccccc2Oc2ccccn2)on1 [Example 1-38]	100	100	90	100	100	100	100	100	100	100	100	100	100	100	100	100	100	100	100	100	Pre-emergence action against Matricaria inodora (MATIN) [11]: 100%; herbicidal activity against the harmful plants of Tables C1-C12 in pre-emergence treatment [13]: very good herbicidal activity; Pre-emergence action against Stellaria media (STEME) (Stellaria media (STEME) [14]; dosage 320 g/ha): 100%; Pre-emergence action against Stellaria media (STEME) (Stellaria media (STEME) [14]; dosage 1280 g/ha): 100%; Pre-emergence action against Echinochloa crus-galli (ECHCG) ([15]; dosage 1280 g/ha): 100%; Pre-emergence action against Digitaria sanguinalis (DIGSA) ([16]; dosage 1280 g/ha): 100%; herbicidal activity against the harmful plants of Tables B1-B12 in post-emergence treatment [17]: very good herbicidal activity; Pre-emergence action against Abutilon theophrasti (ABUTH) ([18]; dosage 320 g/ha): 100%; Pre-emergence action against Abutilon theophrasti (ABUTH) ([18]; dosage 1280 g/ha): 100%; Post-emergence action against Echinochloa crus-galli (ECHCG) ([19]; 320 g/ha): 90%; Post-emergence action against Echinochloa crus-galli (ECHCG) ([19]; 1280 g/ha): 100%; Post-emergence action against Bassia scoparia (KCHSC) (Bassia scoparia (KCHSC) [20]; dosage 320 g/ha): 90%; Post-emergence action against Bassia scoparia (KCHSC) (Bassia scoparia (KCHSC) [20]; dosage 1280 g/ha): 100%; Pre-emergence action against Veronica persica (VERPE) (Veronica persica (VERPE) [21]; dosage 1280 g/ha): 100%; Pre-emergence action against Poa annua (POAAN) (Poa annua (POAAN) [22]; dosage 320 g/ha): 100%; Pre-emergence action against Poa annua (POAAN) (Poa annua (POAAN) [22]; dosage 1280 g/ha): 100%
N#Cc1cccc(Oc2ccc(Cl)cn2)c1-c1cc(C(F)F)no1 [Example 1-55]	100	100	100	100	100	100	100	100	100	100	100	100	100	100	100	100	100	100	100	100	Post-emergence action against Digitaria sanguinalis (DIGSA) ([3]; dosage 320 g/ha): 100%; Pre-emergence action against Setaria viridis (SETVI) (Setaria viridis (SETVI) [5]; dosage 320 g/ha): 100%; Post-emergence action against Setaria viridis (SETVI) (Setaria viridis (SETVI) [23]; 320 g/ha): 100%; Post-emergence action against Setaria viridis (SETVI) (Setaria viridis (SETVI) [23]; 1280 g/ha): 100%; Pre-emergence action against Lolium rigidum (LOLRI) (Lolium rigidum (LOLRI)): 100%; herbicidal activity against the harmful plants of Tables C1-C12 in pre-emergence treatment [13]: very good herbicidal activity; Pre-emergence action against Stellaria media (STEME) (Stellaria media (STEME) [14]; dosage 320 g/ha): 100%; Pre-emergence action against Stellaria media (STEME) (Stellaria media (STEME) [14]; dosage 1280 g/ha): 100%; Pre-emergence action against Echinochloa crus-galli (ECHCG) ([15]; dosage 320 g/ha): 100%; Pre-emergence action against Echinochloa crus-galli (ECHCG) ([15]; dosage 1280 g/ha): 100%; Pre-emergence action against Digitaria sanguinalis (DIGSA) ([16]; dosage 320 g/ha): 100%; Pre-emergence action against Digitaria sanguinalis (DIGSA) ([16]; dosage 1280 g/ha): 100%; herbicidal activity against the harmful plants of Tables B1-B12 in post-emergence treatment [17]: very good herbicidal activity; Pre-emergence action against Abutilon theophrasti (ABUTH) ([18]; dosage 320 g/ha): 100%; Pre-emergence action against Abutilon theophrasti (ABUTH) ([18]; dosage 1280 g/ha): 100%; Post-emergence action against Echinochloa crus-galli (ECHCG) ([19]; 1280 g/ha): 100%; Post-emergence action against Bassia scoparia (KCHSC) (Bassia scoparia (KCHSC) [20]; dosage 320 g/ha): 100%; Post-emergence action against Bassia scoparia (KCHSC) (Bassia scoparia (KCHSC) [20]; dosage 1280 g/ha): 100%; Pre-emergence action against Veronica persica (VERPE) (Veronica persica (VERPE) [21]; dosage 320 g/ha): 100%; Pre-emergence action against Veronica persica (VERPE) (Veronica persica (VERPE) [21]; dosage 1280 g/ha): 100%
